The text below walks through data of US7649012B2, “Compounds, pharmaceutical compositions containing same, and methods of use for same” (FASgen, Inc., priority 2002, dated 2010).

Converted amounts (≈) assume the structure as drawn. Where two headings read alike, the source gives them in different places.

Type in all cases: cell-based
The subject of test [1] is Pseudomonas aeruginosa (ATCC # 27853). The test is described as follows: Broth microdilution MIC. Conditions: for PSAE/MH(MIC): Mueller Hinton Broth; for PSAE/Tsoy(MIC): Trypticase Soy Broth. As to the method: (§1) A broth microdilution assay is used to assess the antimicrobial activity of the compounds. […] Microorganisms tested include Staphylococcus aureus (ATCC # 29213), Enterococcus faecalis (ATCC # 29212), Pseudomonas aeruginosa (ATCC # 27853), and Escherichia coli (ATCC # 25922). The assay is performed in two growth media, Mueller Hinton Broth and Trypticase Soy Broth. […] Colonies are suspended in sterile broth so that the turbidity matches the turbidity of a 0.5 McFarland standard. The inoculum is diluted 1:10 in sterile broth (Mueller Hinton or Trypticase soy) and 195 ul is dispensed per well of a 96-well plate. The compounds to be tested, dissolved in DMSO, are added to the wells in 5 ul volume at the following concentrations: 25, 12.5, 6.25, 3.125, 1.56 and 0.78 ug/ml in duplicate. Additional concentrations are tested if required. 5 ul of DMSO added to duplicate wells are the vehicle control. Serial dilutions of positive control compounds, vancomycin (E. faecalis and S. aureus) and tobramycin (E. coli and P. aeruginosa), are included in each run. After 24 hours of incubation at 37° C., plates are read at OD600 on a Molecular Devices SpectraMax Plus Spectrophotometer. Average OD600 values are computed using SOFTmax Pro Software (Molecular Devices) and MIC values are determined by linear regression analysis using Prism version 3.02 (Graph Pad Software, San Diego).

The subject of test [2] is Staphylococcus aureus (ATCC # 29213). Briefly: Broth microdilution MIC. The settings on record: Staphylococcus aureus, ATCC29213. As to the method: as §1
Background: In broth dilution the organism is exposed to a series of concentrations in liquid medium.

For test [3], the system named is Escherichia coli (ATCC # 25922). Briefly: Broth microdilution MIC. The settings on record: for MIC: Escherichia coli, ATCC25922. As to the method:
as §1

Test [4] relates to Enterococcus faecalis (ATCC # 29212). The test is described as follows: Broth microdilution MIC. The settings on record: for MIC: Enterococcus faecalis, ATCC29212. As to the method: as §1
Test [5] concerns MCF-7 human breast cancer cells. Briefly: [14C]acetate incorporation into total lipids. Conditions: for IC50: Homo sapiens, MCF7, [14C]acetate incorporation into lipids. As to the method:
This assay measures the incorporation of [^14C]acetate into total lipids and is a measure of fatty acid synthesis pathway activity in vitro. It is utilized to measure inhibition of fatty acid synthesis in vitro.
MCF-7 human breast cancer cells cultured as above, are plated at 5×10^4 cells per well in 24-well plates. […] DMSO is added to triplicate wells for a vehicle control. C75 is run at 5 and 10 μg/ml in triplicate as positive controls. After 4 hours of incubation, 0.25 μCi of [^14C]acetate (10 μl volume) is added to each well.
After 2 hours of additional incubation, medium is aspirated from the wells and 800 μl of chloroform:methanol (2:1) and 700 μl of 4 mM MgCl2 is added to each well. Contents of each well are transferred to 1.5 Eppendorf tubes, and spun at full-speed for 2 minutes in a high-speed Eppendorf Microcentrifuge 5415D. After removal of the aqueous (upper) layer, an additional 700 μl of chloroform:methanol (2:1) and 500 μl of 4 mM MgCl2 are added to each tube and then centrifuged for 1 minutes as above. The aqueous layer is removed with a Pasteur pipette and discarded. An additional 400 μl of chloroform:methanol (2:1) and 200 μl of 4 mM MgCl2 are added to each tube, then centrifuged and aqueous layer is discarded. The lower (organic) phase is transferred into a scintillation vial and dried at 40° C. under N2 gas. Once dried, 3 ml of scintillant (APB #NBC5104) is added and vials are counted for ^14C. The Beckman Scintillation counter calculates the average cpm values for triplicates.
The IC50 for the compounds is defined as the concentration of drug leading to a 50% reduction in [^14C]acetate incorporation into lipids compared to controls. […] The average cpm values are computed by the Beckman scintillation counter (Model LS6500) for each compound concentration. Computation of linear regression, best-fit line, r^2, and 95% confidence intervals are calculated using Prism Version 3.0 (Graph Pad Software).

Where [6] appears, read: Mueller Hinton Broth, read-out: SA/MH(MIC).
[7] abbreviates: Trypticase Soy Broth, read-out: SA/Tsoy(MIC).
[8] abbreviates: Mueller Hinton Broth, read-out: EF/MH(MIC).
The mark [9] stands for this setting: Trypticase Soy Broth, read-out: EF/Tsoy(MIC).
The mark [10] stands for this setting: Mueller Hinton Broth, read-out: Ecoli/MH(MIC).

As a reminder, the IC50 is the concentration that gives 50% inhibition. The low end stands for higher potency, the high end for lower potency. Regarding `CCCCCCCC[C@@]1(C)SC(=O)C(C(C)=O)=C1O` (racemic), in test [1], the “PSAE/MH(MIC)” value is listed as “Neg”. For the same compound, in test [1], the “PSAE/Tsoy(MIC)” value is “Neg”. Besides, the MIC in test [2] (setting [6]) was 3.4 µg/mL (≈ 12 µM); in test [2] (setting [7]), 1.4 µg/mL (≈ 4.92 µM); in test [3] (Trypticase Soy Broth, read-out: Ecoli/Tsoy(MIC)), 177 µg/mL (≈ 622 µM); in test [4] (setting [8]), 2.5 µg/mL (≈ 8.79 µM); in test [4] (setting [9]), 2 µg/mL (≈ 7.03 µM). In test [3] (Mueller Hinton Broth), the “Ecoli/MH(MIC)” value is “Neg”. The half-maximal inhibitory concentration (IC50) in test [5] stood at 12.1 ± 0.1 µg/mL (≈ 42.5 µM).

With `C=CCN(C)C(=O)COC1=CC(=O)SC1(C)CCCCCCCC` (centres unmarked), in test [5], inhibition was half-maximal at 25.7 µg/mL (≈ 72.7 µM) (IC50).

With `CCCCCCCCC1(C)SC(=O)C=C1OCc1ccccc1` (centres unmarked), the “14C(IC50)” value in test [5] ([14C]acetate incorporation into lipids) is “Neg(stim)”.

As to `CCCCCCCC[C@@]1(C)SC(=O)C=C1OCCCCCl` (racemic), in test [1], the “PSAE/MH(MIC)” value is recorded as “Neg”. The “PSAE/Tsoy(MIC)” value in test [1] was “Neg”. Moreover, the values for the MIC in test [2] (setting [6]), in test [2] (setting [7]) and in test [4] (setting [8]) were 115 µg/mL (≈ 345 µM), 134 µg/mL (≈ 402 µM) and 64 µg/mL (≈ 192 µM), respectively. Also, the “Ecoli/MH(MIC)” value in test [3] (Mueller Hinton Broth) is on record as “Neg”. In test [3] (Trypticase Soy Broth), the “Ecoli/Tsoy(MIC)” value is on record as “Neg”. Besides, the “EF/Tsoy(MIC)” value in test [4] (Trypticase Soy Broth) is reported as “Neg”. Moreover, in test [5], the IC50 was found to be 6.8 µg/mL (≈ 20.4 µM).

As for `CCCCCCCC[C@@]1(C)SC(=O)C=C1OC(=O)NC(C)C` (racemic), in test [1], the “PSAE/MH(MIC)” value is listed as “Neg”. Further, the “PSAE/Tsoy(MIC)” value in test [1] is “Neg”. Further, the MIC in test [2] (setting [6]) stood at 32 µg/mL (≈ 97.7 µM); in test [2] (setting [7]), 39 µg/mL (≈ 119 µM); in test [4] (setting [8]), 60 µg/mL (≈ 183 µM); in test [4] (setting [9]), 64 µg/mL (≈ 195 µM). The “Ecoli/MH(MIC)” value in test [3] (Mueller Hinton Broth) was “Neg”. Moreover, the “Ecoli/Tsoy(MIC)” value in test [3] (Trypticase Soy Broth) is “Neg”. In test [5], this compound showed a half-inhibitory concentration (IC50) of 23.1 ± 13.2 µg/mL (≈ 70.5 µM).

`CCCCCCCCC1(C)SC(=O)C=C1OC` (centres unmarked): the “PSAE/MH(MIC)” value in test [1] is listed as “Neg”. Further, the “PSAE/Tsoy(MIC)” value in test [1] is recorded as “Neg”. Moreover, the figures for the MIC in test [2] (setting [6]), in test [2] (setting [7]) and in test [4] (setting [8]) were 252 µg/mL (≈ 983 µM), 67 µg/mL (≈ 261 µM) and 72 µg/mL (≈ 281 µM), respectively. In addition, in test [3] (Mueller Hinton Broth), the “Ecoli/MH(MIC)” value was “Neg”. Moreover, the “Ecoli/Tsoy(MIC)” value in test [3] (Trypticase Soy Broth) is “Neg”. The “EF/Tsoy(MIC)” value in test [4] (Trypticase Soy Broth) is “Neg”. In addition, it took 11 µg/mL (≈ 42.9 µM) to reach half-maximal inhibition in test [5] (IC50).

Take `CCCCCC[C@@]1(C)SC(=O)C=C1OCCCCCl` (racemic): the “PSAE/MH(MIC)” value in test [1] was “Neg”. In addition, the “PSAE/Tsoy(MIC)” value in test [1] was “Neg”. The MIC in test [2] (setting [6]) worked out at 164 µg/mL (≈ 538 µM); in test [2] (setting [7]), 50 µg/mL (≈ 164 µM); in test [4] (setting [8]) it was 117 µg/mL (≈ 384 µM); in test [4] (setting [9]), 165 µg/mL (≈ 541 µM). The “Ecoli/MH(MIC)” value in test [3] (Mueller Hinton Broth) is “Neg”. Besides, in test [3] (Trypticase Soy Broth), the “Ecoli/Tsoy(MIC)” value is recorded as “Neg”. For the same compound, the IC50 in test [5] came out at 8.6 µg/mL (≈ 28.2 µM).

Consider `CC/C=C/C=C/C1(C)SC(=O)C=C1O` (centres unmarked), for which the “PSAE/MH(MIC)” value in test [1] is reported as “Neg”. For the same compound, the “PSAE/Tsoy(MIC)” value in test [1] is on record as “Neg”. In addition, the MIC in test [2] (setting [6]) turned out to be 202 µg/mL (≈ 961 µM); in test [2] (setting [7]), 85 µg/mL (≈ 404 µM); in test [3] (setting [10]), 225 µg/mL (≈ 1070 µM); in test [4] (setting [8]), 186 µg/mL (≈ 884 µM). Also, the “Ecoli/Tsoy(MIC)” value in test [3] (Trypticase Soy Broth) is reported as “Neg”. Also, the “EF/Tsoy(MIC)” value in test [4] (Trypticase Soy Broth) is recorded as “Neg”. In addition, the half-maximal inhibitory concentration (IC50) in test [5] is 16.9 µg/mL (≈ 80.4 µM).

Turning to `C=C/C(C)=C/C1(C)SC(=O)C=C1O` (centres unmarked), the MIC in test [2] (setting [6]) was found to be 235 µg/mL (≈ 1200 µM); in test [2] (setting [7]), 102 µg/mL (≈ 520 µM); in test [3] (setting [10]), 290 µg/mL (≈ 1480 µM); in test [4] (setting [8]), 220 µg/mL (≈ 1120 µM).

Turning to `CCCCCCCCC1(C)SC(=O)C=C1OCC(=O)NNCc1ccc(Cl)cc1` (centres unmarked), 10.5 ± 2.6 µg/mL (≈ 23.9 µM) corresponded to half-maximal inhibition in test [5] (IC50).

Compound `CCCCCCCCC1(C)SC(=O)C=C1OCC(=O)NNC(C)=O` (centres unmarked) registered an IC50 in test [5] of 11.5 µg/mL (≈ 32.3 µM).
